Reference: PMC7943729, “Cell-Free DNA Promotes Thrombin Autolysis and Generation of Thrombin-Derived C-Terminal Fragments” (Frontiers in Immunology, 2021)

Experiments:
human thrombin [1] = target: T1, human thrombin (Homo sapiens, UniProt P00734); test: Thrombin autolysis determination by western blot; type: biochemical
T1 construct: purchased Innovative Research USA
Protocol: 10 µl of citrate plasma was added to increasing concentration of DNA (6.25, 12.5, 25, and 50 µg/ml) resuspended in 10 mM Tris, pH 7.4 (total volume of 20 µl). Following an hour pre-incubation at 37 °C, 2.5 mM CaCl2 was added to samples and further incubated for 1 hour at 37 °C. After incubation, samples were boiled for 15 min with sample buffer and were analyzed by SDS-PAGE using Novex 10–20% Tris Tricine precast gels. Post electrophoresis, the gel was transferred to a PVDF membrane and blocked with 5% milk for an hour before western blotting. For detection of C-terminal thrombin fragments, overnight incubation of the blots was performed with polyclonal antibodies recognizing the thrombin C-terminal peptide VFR17 ([…]) in 1:5,000 dilution at 4 °C. […]
DNA dependent thrombin autolysis was analyzed by incubating 0.4 µg of human thrombin (Innovative Research USA) in the presence or absence of equal weight ratio (1:1) of DNA in a total volume of 10 µl for different time points (1, 2, 4, and 6 h). […] Thrombin autolysis inhibition was analyzed using 0.4 µg of heat inactivated thrombin (preboiled for 10 mins at 95 °C) incubated with equal weight ratio (1:1) of DNA for extended time of 6 h. […] In all cases, after the incubation at 37 °C, samples were boiled for 10 min in sample buffer and analyzed by western blotting as mentioned above.

genomic DNA = test: DNA gel shift assay (agarose gel mobility shift); type: binding, human; settings: 200 ng gDNA (20 µg/ml), 10-200 ng protein or peptide, 10 mM Tris pH 7.4, 1 h 37 °C, 0.8% agarose gel, SYBR Safe; n = 3
Protocol: The DNA used for agarose gel and western blot analysis was extracted from cultured human keratinocytes (HaCaT) cells using E.Z.N.A. DNA/RNA Isolation kit (Omega Bio-Tek USA) or E. coli DH5α plasmid DNA (pUC19) using Qiagen plasmid purification kits (Qiagen USA) according to the manufacturer’s protocol.
Following this, the samples were analyzed by gel electrophoresis on a 0.8% agarose (w/v) gel in 1X Tris acetate-EDTA (TAE) buffer with SYBR Safe and visualized with the ChemiDoc Imaging System (Bio-Rad, USA).

human thrombin [2] = target: T1, human thrombin; settings: thrombin autolysis without DNA; cited from earlier work
Text: Previous studies have shown that the rate of autolysis increases with concentration of thrombin, pH, temperature and concentration of monovalent cations ([31], [32]).

[3] = target: T2, human neutrophil elastase (Homo sapiens, UniProt P08246); test: Protease protection assay; type: in vitro ADME; settings: NE 1:30, 37 °C, western blot
T2 sequence (P08246 30-267): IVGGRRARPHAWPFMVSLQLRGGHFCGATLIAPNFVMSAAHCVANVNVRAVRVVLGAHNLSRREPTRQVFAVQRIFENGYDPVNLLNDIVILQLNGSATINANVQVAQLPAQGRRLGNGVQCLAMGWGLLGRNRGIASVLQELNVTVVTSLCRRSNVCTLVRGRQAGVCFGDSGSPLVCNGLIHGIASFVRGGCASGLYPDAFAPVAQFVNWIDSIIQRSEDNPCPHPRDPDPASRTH
Protocol: Thrombin or GKY25 (0.4 µg) was incubated with DNA (w/w ratio = 1:1) in 10 mM Tris, pH 7.4 for 4 h, followed by addition of neutrophil elastase at enzyme: substrate ratio of 1:30 and incubated for various time points (1, 2, and 3 h). Post incubation, samples were boiled for 3 min to inhibit the reaction and further analyzed by Tricine SDS-PAGE as described above.

Compound: O=S(=O)(F)Cc1ccccc1 [PMSF]
- inhibition of DNA-induced TCP formation (human thrombin [1]; 0.4 µg thrombin, DNA 1:1 w/w, 4 h 37 °C, PMSF 1 mM, protease inhibitor cocktail 1X): abrogated the formation of TCPs

Compound: heparin
- induction of thrombin fragmentation / TCP formation (human thrombin [1]; 0.4 µg human thrombin, 37 °C, western blot with anti-VFR17, DNA 1:1 for 1-6 h, NETs 4 h, heparin 1:0.5 and 1:1 for 1 h): did not induce thrombin fragmentation or TCP formation

Compound: thrombin
- amount giving complete retardation of DNA (genomic DNA): ≥ 160 ng
- amount giving reduced DNA migration (genomic DNA): 40 ng
- time for complete autolytic conversion to γ-thrombin (human thrombin [2]): ~144 h
- thrombin fragments after neutrophil elastase in the presence of DNA ([3]; 0.4 µg thrombin with gDNA 1:1 w/w, increasing incubation time 60-180 min): a higher signal intensity of the 3 kDa TCP
- cleavage of thrombin by neutrophil elastase without DNA ([3]; 0.4 µg thrombin, control lanes without DNA, 60-180 min): cleaved thrombin to release multiple TCPs
